Results from publication PMC3393087 (Journal of the American Chemical Society, 2010).
Converted amounts (≈) assume the structure as drawn. Read-outs that look alike come from different tables or passages of the source.

Experiments:
[1] = system: A. baumannii strain JC7/04 pAT-RA; assay: microbe, parasite or virus in culture; format: cell-based, Acinetobacter baumannii
[2] = system: A. baumannii strain JC7/04 pAT-RA/OXA-24 (Y112A,M223A); assay: microbe, parasite or virus in culture; format: cell-based; conditions: Acinetobacter baumannii
[3] = system: A. baumannii strain JC7/04 pAT-RA/OXA-24 (WT); assay: microbe, parasite or virus in culture; format: cell-based, Acinetobacter baumannii
[4] = target: OXA-24 Tyr112Ala (Acinetobacter baumannii, UniProt Q8RLA6, Y112A); conditions: substrate hydrolysis by OXA-24 Tyr112Ala
[5] = target: OXA-24 Tyr112Ala Met 223Ala (Acinetobacter baumannii, UniProt Q8RLA6, M223A/Y112A); conditions: substrate hydrolysis by OXA-24 Tyr112Ala Met223Ala
[6] = pAT-RA without blaOXA-24, tazobactam, 1-5 tested at 16 μg/ml, 50 μg/mL rifampin
[7] = pAT-RA/OXA-24 (WT), tazobactam, 1-5 tested at 4 μg/ml, 50 μg/mL rifampin
[8] = pAT-RA/OXA-24 (WT), tazobactam, 1-5 tested at 16 μg/ml, 50 μg/mL rifampin

C[C@@H](O)[C@H]1C(=O)N2C(C(=O)O)=C(S[C@@H]3CN[C@H](C(=O)N(C)C)C3)[C@H](C)[C@H]12 [Meropenem, meropenem]
MIC ([1]; pAT-RA without blaOXA-24, tazobactam, 1-5 tested at 4 μg/ml, 50 μg/mL rifampin): 1 µg/mL
MIC [1, 6]: 1 µg/mL
MIC [2]: 2 µg/mL (≈ 5.22 µM)
MIC ([3]; Acinetobacter baumannii): 32 µg/mL (≈ 83.4 µM)
MIC [3, 7]: 32 µg/mL
MIC [3, 8]: 32 µg/mL

O=C(Cc1cccs1)N[C@@H]1C(=O)N2C(C(=O)O)=C(/C=C/c3ccc([N+](=O)[O-])cc3[N+](=O)[O-])CS[C@H]12 [NCF, nitrocefin]
Km [4]: 238 µM
Km [5]: 143 µM

C[C@]1(Cn2ccnn2)[C@H](C(=O)O)N2C(=O)C[C@H]2S1(=O)=O [tazobactam]
MIC ([1]; Acinetobacter baumannii, JC7/04PATRA, read-out: MIC of inhibitor alone): > 64 µg/mL
reduction in MICs of meropenem or imipenem ([3]; inhibitor at 4 μg/ml combined with meropenem or imipenem, blaOXA-24 expressed): did not detect a reduction in MICs

C[C@@H](O)[C@H]1C(=O)N2C(C(=O)O)=C(SCCN=CN)C[C@H]12 [Imipenem, imipenem]
MIC [1, 6]: 1 µg/mL
MIC [2]: 4 µg/mL (≈ 13.4 µM)
MIC ([3]; Acinetobacter baumannii): 32 µg/mL (≈ 107 µM)
MIC [3, 7]: 32 µg/mL
MIC [3, 8]: 32 µg/mL
